Experiment: Chemical analysis of the extract for the antibiotics (HPLC-MS / MS)
Type: physicochemical
Settings: added at 0.003% each; analysed about two weeks after formation of the extract
Experimental: 10 grams of dried Lawsonia inermis leaves (www.ETSY.com) were placed in a beaker and 100 ml of distilled water were added. The mixture was stirred for 2 hours at room temperature to obtain an aqueous Lawsonia inermis extract designated as a 10% w/w or w/v extract. […] The Lawsonia inermis extract was analyzed for antibiotic activity and for the presence of the antibiotics about two weeks after formation of the extract.
A chemical analysis was performed on the extract. […] Polymyxin B analysis was performed on a Thermo Finnigan LCQ MS.

Substance: Gentamicin [Gentamycin]
- antibiotic not detected in the extract at a level of: < 15.0 nanograms/ml

Substance: Polymyxin B
- antibiotic not detected in the extract at a level of: < 960 nanograms/ml
